# Measurements reported in ChEMBL document CHEMBL1123342 (J Med Chem, 1986).
# Target: Pancreatic elastase (Sus scrofa, UniProt P08419+P00772)
# Experiment: Compound is evaluated for the inhibition of porcine pancreatic (PP) elastase
# Type: protein
row,SMILES,Ki [µM]
1,COC(=O)CCC(=O)N[C@@H](C)C(=O)N[C@@H](C)C(=O)N1CCC[C@H]1C(=O)CN(C(=O)Oc1ccc([N+](=O)[O-])cc1)C(C)C,42.5
2,COC(=O)CCC(=O)N[C@@H](C)C(=O)N[C@@H](C)C(=O)N1CCC[C@H]1C(=O)CN(C(=O)Sc1nnnn1-c1ccccc1)C(C)C,2.4
3,COC(=O)CCC(=O)N[C@@H](C)C(=O)N[C@@H](C)C(=O)N1CCC[C@H]1C(=O)CN(C(=O)Oc1ccccc1)C(C)C,31.5
4,COC(=O)CCC(=O)N[C@@H](C)C(=O)N[C@@H](C)C(=O)N1CCC[C@H]1C(=O)CN(C(=O)Sc1nnnn1C)C(C)C,19.5

# Now from value to compound:
row,Ki [µM],SMILES
1,35,COC(=O)CCC(=O)N[C@@H](C)C(=O)N[C@@H](C)C(=O)N1CCC[C@H]1C(=O)CN(C(=O)Oc1c(F)c(F)c(F)c(F)c1F)C(C)C
2,82.1,COC(=O)CCC(=O)N[C@@H](C)C(=O)N[C@@H](C)C(=O)N1CCC[C@H]1C(=O)CN(C(=O)OCC(F)(F)C(F)(F)C(F)(F)F)C(C)C
